Reference: PubChem BioAssay (NCI)
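How tested: cells in 96-well plates exposed to compound for 48 hours at five concentrations. GI50 is the concentration that inhibits growth by half. TGI marks complete inhibition of growth.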

Columns and labels:
Test in all cases: NCI-60 cell line screen, 48 h
SNB-19 CNS = system: SNB-19 CNS
A549 NSCLC = system: A549 NSCLC
UACC-257 melanoma = system: UACC-257 melanoma
SK-MEL-2 melanoma = system: SK-MEL-2 melanoma
U251 CNS = system: U251 CNS
MOLT-4 leukemia = system: MOLT-4 leukemia
MALME-3M melanoma = system: MALME-3M melanoma
BT-549 breast = system: BT-549 breast
NCI-H23 lung = system: NCI-H23 lung
IGROV1 ovarian = system: IGROV1 ovarian
EKVX NSCLC = system: EKVX NSCLC
NCI-H226 lung = system: NCI-H226 lung
COLO 205 colon = system: COLO 205 colon
786-0 renal = system: 786-0 renal
HOP-62 NSCLC = system: HOP-62 NSCLC
SK-MEL-28 melanoma = system: SK-MEL-28 melanoma
OVCAR-8 ovarian = system: OVCAR-8 ovarian
MDA-MB-231 breast = system: MDA-MB-231 breast
SF-268 CNS = system: SF-268 CNS
SK-MEL-5 melanoma = system: SK-MEL-5 melanoma
LOX IMVI melanoma = system: LOX IMVI melanoma
MCF7 breast = system: MCF7 breast
RPMI-8226 leukemia = system: RPMI-8226 leukemia
M14 melanoma = system: M14 melanoma
SR leukemia = system: SR leukemia
HCT-116 colon = system: HCT-116 colon
HS 578T breast = system: HS 578T breast
NCI/ADR-RES ovarian = system: NCI/ADR-RES ovarian
CAKI-1 renal = system: CAKI-1 renal
HL-60(TB) leukemia = system: HL-60(TB) leukemia
UACC-62 melanoma = system: UACC-62 melanoma
OVCAR-3 ovarian = system: OVCAR-3 ovarian
OVCAR-4 ovarian = system: OVCAR-4 ovarian
PC-3 prostate = system: PC-3 prostate
MDA-MB-435 = system: MDA-MB-435
SN12C renal = system: SN12C renal
NCI-H522 lung = system: NCI-H522 lung
SW-620 colon = system: SW-620 colon
SF-539 CNS = system: SF-539 CNS
SK-OV-3 ovarian = system: SK-OV-3 ovarian
SNB-75 CNS = system: SNB-75 CNS
OVCAR-5 ovarian = system: OVCAR-5 ovarian
HT29 colon = system: HT29 colon
T-47D breast = system: T-47D breast
NCI-H460 lung = system: NCI-H460 lung
CCRF-CEM leukemia = system: CCRF-CEM leukemia
RXF 393 renal = system: RXF 393 renal
KM12 colon = system: KM12 colon
TK-10 renal = system: TK-10 renal
A498 renal = system: A498 renal
ACHN renal = system: ACHN renal
HCC-2998 colon = system: HCC-2998 colon
DU-145 prostate = system: DU-145 prostate
UO-31 renal = system: UO-31 renal
HOP-92 NSCLC = system: HOP-92 NSCLC
HCT-15 colon = system: HCT-15 colon

COc1ccc2cc1Oc1ccc(cc1)C[C@H]1c3c(cc4c(c3Oc3cc5c(cc3OC)CCN(C)[C@@H]5C2)OCO4)CCN1C
GI50 (SNB-19 CNS): 3.53 µM | TGI (SNB-19 CNS): 14.6 µM | GI50 (A549 NSCLC): 2.03 µM | TGI (A549 NSCLC): 7.89 µM | GI50 (UACC-257 melanoma): 0.727 µM | TGI (UACC-257 melanoma): 1.46 µM | GI50 (SK-MEL-2 melanoma): 4.13 µM | TGI (SK-MEL-2 melanoma): 11.2 µM | GI50 (U251 CNS): 0.832 µM | TGI (U251 CNS): 5.52 µM | GI50 (MOLT-4 leukemia): 3.92 µM | TGI (MOLT-4 leukemia): 12.9 µM | GI50 (MALME-3M melanoma): 1.18 µM | TGI (MALME-3M melanoma): 3.01 µM | GI50 (BT-549 breast): 5.12 µM | TGI (BT-549 breast): 11.8 µM | GI50 (NCI-H23 lung): 5.44 µM | TGI (NCI-H23 lung): 13.5 µM | GI50 (IGROV1 ovarian): 5.42 µM | TGI (IGROV1 ovarian): 12.9 µM | GI50 (EKVX NSCLC): 8.47 µM | TGI (EKVX NSCLC): 18 µM | GI50 (NCI-H226 lung): 4.1 µM | TGI (NCI-H226 lung): 11.5 µM | GI50 (COLO 205 colon): 0.356 µM | TGI (COLO 205 colon): 1.36 µM | GI50 (786-0 renal): 5.57 µM | TGI (786-0 renal): 12 µM | GI50 (HOP-62 NSCLC): 2.98 µM | TGI (HOP-62 NSCLC): 9.6 µM | GI50 (SK-MEL-28 melanoma): 0.911 µM | TGI (SK-MEL-28 melanoma): 1.86 µM | GI50 (OVCAR-8 ovarian): 2.36 µM | TGI (OVCAR-8 ovarian): 9.9 µM | GI50 (MDA-MB-231 breast): 1.1 µM | TGI (MDA-MB-231 breast): 2.87 µM | GI50 (SF-268 CNS): 5.09 µM | TGI (SF-268 CNS): 11.5 µM | GI50 (SK-MEL-5 melanoma): 0.763 µM | TGI (SK-MEL-5 melanoma): 1.43 µM | GI50 (LOX IMVI melanoma): 0.702 µM | TGI (LOX IMVI melanoma): 1.52 µM | GI50 (MCF7 breast): 1.85 µM | TGI (MCF7 breast): 7.4 µM | GI50 (RPMI-8226 leukemia): 1.56 µM | TGI (RPMI-8226 leukemia): 8.7 µM | GI50 (M14 melanoma): 0.903 µM | TGI (M14 melanoma): 1.76 µM | GI50 (SR leukemia): 0.908 µM | TGI (SR leukemia): 2.87 µM | GI50 (HCT-116 colon): 0.726 µM | TGI (HCT-116 colon): 6.8 µM | GI50 (HS 578T breast): 7.76 µM | TGI (HS 578T breast): 46.2 µM | GI50 (NCI/ADR-RES ovarian): 6.02 µM | TGI (NCI/ADR-RES ovarian): 15.9 µM | GI50 (CAKI-1 renal): 5.13 µM | TGI (CAKI-1 renal): 11.9 µM | GI50 (HL-60(TB) leukemia): 3.54 µM | TGI (HL-60(TB) leukemia): 11.9 µM | GI50 (UACC-62 melanoma): 1.81 µM | TGI (UACC-62 melanoma): 6.16 µM | GI50 (OVCAR-3 ovarian): 5.38 µM | TGI (OVCAR-3 ovarian): 15 µM | GI50 (OVCAR-4 ovarian): 2.52 µM | TGI (OVCAR-4 ovarian): 12.3 µM | GI50 (PC-3 prostate): 2.08 µM | TGI (PC-3 prostate): 11.4 µM | GI50 (MDA-MB-435): 1.03 µM | TGI (MDA-MB-435): 6.12 µM | GI50 (SN12C renal): 3.55 µM | TGI (SN12C renal): 10.6 µM | GI50 (NCI-H522 lung): 1.43 µM | TGI (NCI-H522 lung): 6.77 µM | GI50 (SW-620 colon): 2.11 µM | TGI (SW-620 colon): 8.47 µM | GI50 (SF-539 CNS): 0.826 µM | TGI (SF-539 CNS): 1.63 µM | GI50 (SK-OV-3 ovarian): 6.23 µM | TGI (SK-OV-3 ovarian): 12.5 µM | GI50 (SNB-75 CNS): 5.27 µM | TGI (SNB-75 CNS): 11.4 µM | GI50 (OVCAR-5 ovarian): 6.65 µM | TGI (OVCAR-5 ovarian): 13.5 µM | GI50 (HT29 colon): 0.237 µM | TGI (HT29 colon): 2.56 µM | GI50 (T-47D breast): 0.988 µM | TGI (T-47D breast): 2.05 µM | GI50 (NCI-H460 lung): 2.82 µM | TGI (NCI-H460 lung): 9.03 µM | GI50 (CCRF-CEM leukemia): 1.53 µM | TGI (CCRF-CEM leukemia): 7.77 µM | GI50 (RXF 393 renal): 0.628 µM | TGI (RXF 393 renal): 1.69 µM | GI50 (KM12 colon): 4.83 µM | TGI (KM12 colon): 13.2 µM | GI50 (TK-10 renal): 5.87 µM | TGI (TK-10 renal): 12.2 µM | GI50 (A498 renal): 5.93 µM | TGI (A498 renal): 12.1 µM | GI50 (ACHN renal): 4.59 µM | TGI (ACHN renal): 10.6 µM | GI50 (HCC-2998 colon): 1.65 µM | TGI (HCC-2998 colon): 8.26 µM | GI50 (DU-145 prostate): 6.23 µM | TGI (DU-145 prostate): 17.8 µM | GI50 (UO-31 renal): 5.41 µM | TGI (UO-31 renal): 11.7 µM | GI50 (HOP-92 NSCLC): 1.3 µM | TGI (HOP-92 NSCLC): 11.8 µM | GI50 (HCT-15 colon): 2.02 µM | TGI (HCT-15 colon): 8.34 µM
